Assays:
ApoE null mice [1] = experiment: HDL paraoxonase activity in apoE null mice; format: in vivo; conditions: FIG. 16
Procedure: Female apoE null mice 4 months of age (n=4 per group) were administered by intraperitoneal injection either scrambled D-4F (a non-active control peptide) or D-4F at 10 μg/mouse or the peptide Ac-KWIYHLTEGSTDLRTEG-NH2 (SEQ ID NO:643) synthesized from L-amino acids (L-ApoM) at 50 μg/mouse. The mice were bled 2 or 6 hours later and their HDL isolated by FPLC and the paraoxonase activity in the HDL determined and plotted on the X-axis. Other 4-month-old female apoE null mice (n=4 per group) were administered by gastric gavage the peptide Ac-KWIYHLTEGSTDLRTEG-NH2 (SEQ ID NO:643) synthesized from L-amino acids (L-ApoM) at 100 μg/mouse (L-ApoM by gavage). The mice were bled 6 hours later and their HDL isolated by FPLC and the paraoxonase activity in the HDL determined and plotted on the X-axis.

[2] = system: Human aortic endothelial cells; experiment: Prevention of LDL-induced monocyte chemotactic activity in vitro, co-incubation; format: cell-based; conditions: co-incubation with control human LDL 200 μg protein/ml, overnight; FIG. 1
Procedure: FIG. 1 illustrates a comparison of the effect of D-4F (Circulation 2002; 105:290-292) with the effect of an apoJ peptide made from D amino acids (D-J336, Ac-LLEQLNEQFNWVSRLANLTQGE-NH2, SEQ ID NO:13) on the prevention of LDL-induced monocyte chemotactic activity in vitro in a co-incubation. Human aortic endothelial cells were incubated with medium alone (no addition), with control human LDL (200 μg protein/ml) or control human LDL+control human HDL (350 μg HDL protein/ml). D-J336 or D-4F was added to other wells in a concentration range as indicated plus control human LDL (200 μg protein/ml). Following overnight incubation, the supernatants were assayed for monocyte chemotactic activity.

ApoE null mice [3] = experiment: Ability of LDL from apoE null mice given oral peptides to induce monocyte chemotactic activity (LDL susceptibility to oxidation); format: in vivo; conditions: peptide in drinking water, 24 hrs
Procedure: FIG. 5 illustrates the effect of oral apo A-1 peptide mimetic and apoJ peptide on LDL susceptibility to oxidation. ApoE null mice (4 per group) were provided, in their drinking water, with D-4F (designated as F) at 50, 30, 20, 10, 5 μg per ml of drinking water or the apoJ peptide (D-J336 made from D amino acids and designated as J) at 50, 30 or 20 μg per ml of drinking water. After 24 hrs blood was collected from the mice shown in FIG. 4, plasma fractionated by FPLC and fractions containing LDL (designated as mLDL for murine LDL) were pooled and LDL susceptibility to oxidation as determined by induction of monocyte chemotactic activity was determined. For the assay controls the culture wells received no lipoproteins (no additions), mLDL alone (at 200 μg cholesterol/ml), or mLDL+standard normal human HDL (designated as Cont. h HDL, 350 μg HDL cholesterol).
Murine LDL, mLDL, from mice that received the D-4F (F mLDL) or those that received the apoJ peptide (J mLDL) were added to artery wall cell cultures.

[4] = system: Human aortic endothelial cells; experiment: Prevention of LDL-induced monocyte chemotactic activity by pre-treatment (pre-incubation) of artery wall cells; format: cell-based; conditions: 6 hrs pre-incubation, D-J336 4, 2, 1 μg/ml vs D-4F 100-12.5 μg/ml, FIG. 2
Procedure: FIG. 2 illustrates a comparison of the effect of D-4F with the effect of D-J336 on the prevention of LDL induced monocyte chemotactic activity in a pre-incubation. Human aortic endothelial cells were pre-incubated with D-J336 or D-4F at 4, 2, and 1 μg/ml for DJ336 or 100, 50, 25, and 12.5 μg/ml for D-4F for 6 hrs. The cultures were then washed and were incubated with medium alone (no addition), or with control human LDL (200 μg protein/ml), or with control human LDL+control human HDL (350 μg HDL protein/ml) as assay controls. The wells that were pre-treated with peptides received the control human LDL at 200 μg protein/ml. Following overnight incubation, the supernatants were assayed for monocyte chemotactic activity.

ApoE null mice [5] = experiment: Plasma paraoxonase (PON1) activity in apoE null mice given oral peptides; format: in vivo; conditions: apoE null mice, 50, 10 or 5 μg per ml drinking water, 24 hrs, FIG. 7
Procedure: ApoE null mice (4 per group) were provided with D-4F designated as F at 50, 10, 5 or 0 μg per ml of drinking water or apoJ peptide (D-J336 made from D amino acids and designated as J) at 50, 10 or 5 μg per ml of drinking water. After 24 hrs blood was collected and plasma was assayed for PON1 activity.

LDL receptor null mice = experiment: HDL protective capacity in LDL receptor null mice given peptide in drinking water; format: in vivo; conditions: 0.25 or 0.5 mg per ml drinking water, 24 or 48 hrs, mouse HDL at 100 μg cholesterol/ml
Procedure: D-4F designated as F, or the apoJ peptide made from D amino acids (D-J336, designated as J) was added to the drinking water of LDL receptor null mice (4 per group) at 0.25 or 0.5 mg per ml of drinking water. After 24- or 48-hrs blood was collected from the mice and their HDL was isolated and tested for its ability to protect against LDL-induced monocyte chemotactic activity. Assay controls included culture wells that received no lipoproteins (no addition), or control human LDL alone (designated as LDL, 200 μg cholesterol/ml), or control LDL+control human HDL (designated as +HDL, 350 μg HDL cholesterol). For testing the mouse HDL, the control LDL was added together with mouse HDL (+F HDL or +J HDL) to artery wall cell cultures. The mouse HDL was added at 100 μg cholesterol/ml respectively.

ApoE null mice [6] = experiment: Protection against PAPC oxidation by HPODE by HDL from apo E null mice given oral peptides; format: in vivo; conditions: peptide in drinking water, 24 hrs, murine HDL at 100 μg cholesterol/ml
Procedure: FIG. 6 illustrates the effect of oral apoA-1 peptide mimetic and apoJ peptide on HDL protective capacity. ApoE null mice (4 per group) were provided with D-4F (designated as F) at 50, 30, 20, 10, 5 μg per ml of drinking water or apoJ peptide (D-J336 made from D amino acids and designated as J) at 50, 30 or 20 μg per ml of drinking water. After 24 hrs blood was collected, plasma fractionated by FPLC and fractions containing HDL (designated as mHDL) were pooled and HDL protective capacity against PAPC oxidation as determined by the induction of monocyte chemotactic activity was determined. For the assay controls the culture wells received no lipoproteins (no additions), the phospholipid PAPC at 20 μg/ml+HPODE, at 1.0 μg/ml, or PAPC+BPODE plus standard normal human HDL (at 350 μg HDL cholesterol/ml and designated as +Cont. h HDL).
For testing the murine HDL, PAPC+HPODE together with murine HDL (+F mHDL or +J mHDL) were added to artery wall cell cultures. […] The murine HDL was used at 100 μg cholesterol/ml.

ApoE null mice [7] = experiment: Protection against LDL-induced monocyte chemotactic activity by HDL from apo E null mice given oral peptides; format: in vivo; conditions: peptide in drinking water (D-4F 5-50, D-J336 20-50 μg per ml), 24 hrs, murine HDL at 100 μg cholesterol/ml
Procedure: FIG. 4 illustrates the effect of oral apoA-1 peptide mimetic and apoJ peptide on HDL protective capacity. ApoE null mice (4 per group) were provided with D-4F (designated as F) at 50, 30, 20, 10, 5 μg per ml of drinking water or apoJ peptide (designated as J) at 50, 30 or 20 μg per ml of drinking water. After 24 hrs blood was collected, plasma fractionated by FPLC and fractions containing LDL (designated as mLDL for murine LDL) and fractions containing HDL (designated as mHDL) were separately pooled and HDL protective capacity against LDL oxidation as determined by LDL-induced monocyte chemotactic activity was determined. For the assay controls the culture wells received no lipoproteins (no additions), mLDL alone (at 200 μg cholesterol/ml), or mLDL+standard normal human HDL (designated as Cont. h HDL, at 350 μg HDL cholesterol/ml).
For testing the murine HDL, mLDL together with murine HDL (+F mHDL or +J mHDL) were added to artery wall cell cultures. […] The murine HDL was used at 100 μg cholesterol/ml.

cynomologous monkeys = experiment: Monkey HDL and LDL after oral peptide tested for monocyte chemotactic activity in human artery wall cell cultures; format: in vivo; conditions: five milligrams by stomach tube, 6 hours
Procedure: Five milligrams of the peptide LAEYHAK (SEQ ID NO: 8) synthesized from all D-amino acids was administered to each of four cynomologous monkeys in 2.0 mL of water by stomach tube and followed with 2.0 mL of water as a wash. Six hours later the monkeys were bled and their plasma fractionated by fast protein liquid chromatography (FPLC) and tested in human artery wall cell cultures.

For Ac-KWIYHLTEGSTDLRTEG-NH2 [L-ApoM], the HDL paraoxonase activity (ApoE null mice [1]; gastric gavage 100 μg/mouse, bled 6 hours later) was “increased paraoxonase activity” and the HDL paraoxonase activity (ApoE null mice [1]; intraperitoneal injection 50 μg/mouse, bled 2 or 6 hours later) was “increased paraoxonase activity”.
For Ac-LLEQLNEQFNWVSRLANLTQGE-NH2 [D-J336], the “in vitro concentration that prevents LDL-induced monocyte chemotactic activity by human artery wall cells, times less than the concentration required for D-4F” value [2] was 10 to 25 times, the “rendering LDL resistant to oxidation by human artery wall cells (induction of monocyte chemotactic activity)” value (ApoE null mice [3]; FIG. 5) was “slightly more potent than D-4F” and the “rendering LDL resistant to oxidation by human artery wall cells (induction of monocyte chemotactic activity)” value (ApoE null mice [3]; FIG. 5, listed as DJ336) was “slightly more potent than D4F”. The “potency in preventing LDL oxidation by artery wall cells in vitro, times more potent than D-4F” value [4] was 10 to 25 times, the “potency in preventing LDL oxidation by artery wall cells in vitro, times more potent than D-4F” value ([4]; listed as ApoJ variant peptide) was 10-25 times and the “increasing plasma paraoxonase activity” value (ApoE null mice [5]) was “at least as potent as D-4F”. The “increasing plasma paraoxonase activity” value (ApoE null mice [5]; listed as DJ336) was “at least as potent as D4F”, the “HDL protective capacity against LDL-induced monocyte chemotactic activity” value (LDL receptor null mice; FIG. 3) was “as active as 350 μg/ml of control human HDL” and the “HDL protective capacity against LDL-induced monocyte chemotactic activity” value (LDL receptor null mice; FIG. 3, listed as DJ335) was “essentially as effective as D4F”. The “causing HDL to inhibit oxidation of PAPC by HPODE (generation of monocyte chemotactic activity)” value (ApoE null mice [6]; FIG. 6) was “as potent as D-4F”, the “causing HDL to inhibit oxidation of PAPC by HPODE (generation of monocyte chemotactic activity)” value (ApoE null mice [6]; FIG. 6, listed as DJ336) was “as potent as D4F” and the “HDL protective capacity against LDL oxidation (LDL-induced monocyte chemotactic activity)” value (ApoE null mice [7]; FIG. 4) was “as active as 350 μg/ml of normal human HDL”. For the same substance, the “HDL protective capacity against LDL oxidation (LDL-induced monocyte chemotactic activity)” value (ApoE null mice [7]; FIG. 4, listed as D-J peptide) was “as potent as D-4F” and the “HDL protective capacity against LDL oxidation (LDL-induced monocyte chemotactic activity)” value (ApoE null mice [7]; FIG. 4, listed as DJ336) was “as potent as D4F”.
With “LAEYHAK (Synthetic peptide. Can be protected or unprotected as shown in specification.)” the “monocyte chemotactic activity with hLDL plus monkey HDL taken after peptide versus time zero” value (cynomologous monkeys; monkey HDL 50 μg/mL HDL-cholesterol, FIG. 17 panel B) was “significantly reduced monocyte chemotactic activity” and the “monocyte chemotactic activity induced by monkey LDL taken after peptide versus time zero” value (cynomologous monkeys; monkey LDL 100 μg/mL LDL-cholesterol, FIG. 17 panel C) was “significantly less monocyte chemotactic activity”.
